In one test the test system is Nucleic Acid. Kind of test: Compound was tested for the induction of DNA strand breaks at concentrations of 0.1 and 0.5 uM; Active. Type of test: nucleic-acid assay.
A further test relates to Ovarian cancer cell line. Kind of test: Clonogenic survival activity against human ovarian cancer cells (2008, C13*) cells; 0.01-10 range. The class given is functional, cell-based.
Test [1] in a line: Concentration required for complete inhibition of relaxation of supercoiled plasmid (form I) at concentrations. Type of test: functional.

Active and inactive are the calls of the source. The rule behind the calls is not given here.

As a reminder, the IC50 is the point on the concentration scale where inhibition reaches its midpoint. Low values mean greater potency, high ones weaker potency. Consider `CNC(=S)N(C)CCNc1c2ccccc2nc2ccccc12`, for which the result in the test with Nucleic Acid was Active. The half-maximal inhibitory concentration (IC50) in the test with Ovarian cancer cell line was determined as 10 nM. Also, the Inhibition concentration in test [1] was over 25 µM.

These data come from ChEMBL document CHEMBL1134912, “Cytotoxic acridinylthiourea and its platinum conjugate produce enzyme-mediated DNA strand breaks” (Bioorg Med Chem Lett, 2002).
